# Laboratory results reported in patent US8492105B2, “Screening method for an insulin resistance improving agent or a therapeutic agent for diabetes” (Fujitsu Limited, priority 2009, dated 2013).
# How the values were obtained:
# [1] = biological target: T1, phosphorylation of Ser727 of STAT3 by ERK2 (Homo sapiens, UniProt P28482); experiment: Phosphorylation inhibitory activity test by western blotting (anti-pS727 STAT); format: biochemical; conditions: 1 mM 5-iodotubercidin (final 1.14 mM), 22% DMSO (Sample 3); 30° C. 130 min; vs control Sample 1
# T1 construct: purchased Biosource Inc. (Active ERK); Abcam Inc. (STAT3)
# T1 sequence (P28482 whole entry): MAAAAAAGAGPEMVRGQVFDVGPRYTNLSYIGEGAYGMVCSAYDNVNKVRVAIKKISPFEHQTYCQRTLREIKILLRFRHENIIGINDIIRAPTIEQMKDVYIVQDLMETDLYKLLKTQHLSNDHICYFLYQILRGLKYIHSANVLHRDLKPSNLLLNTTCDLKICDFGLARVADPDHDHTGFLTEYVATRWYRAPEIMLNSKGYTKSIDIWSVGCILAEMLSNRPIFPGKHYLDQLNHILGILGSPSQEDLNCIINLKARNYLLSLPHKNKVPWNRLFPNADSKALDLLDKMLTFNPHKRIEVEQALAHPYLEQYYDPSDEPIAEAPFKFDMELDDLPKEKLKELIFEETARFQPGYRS
# Description: The following ingredients were used at a composition indicated in Table 1 to prepare a reaction liquid: 5× reaction buffer (250 mM tris-HCl (pH 7.5), 50 mM magnesium chloride, 0.1% by mass bovine serum albumin (BSA) and 5 mM dithiothreitol (DTT)), Active ERK solution (0.1 mg/mL) (product of Biosource Inc.), STAT3 solution (0.2 mg/mL) (product of Abcam Inc.) and distilled water.
# Also, 5-iodotubercidin (product of Calbiochem Inc.) was used as a control compound.
# The 5-iodotubercidin was suspended in DMSO so that the final concentration thereof was adjusted to 5 mM.
# Furthermore, distilled water was added to the samples so as to appropriately adjust the volume thereof, whereby reaction mixtures were obtained.
# Each of the reaction mixtures was incubated at 30° C. for 130 min to allow Active ERK2 to phosphorylate the Ser727 of the STAT3.
# After that, to terminate the phosphorylation, 0.5M ethylenediamine tetraacetate (EDTA) was added in an amount of 2.75 μL to the reaction mixtures serving as a control (Table 2: Sample 1 or 2), and was added in an amount of 5.5 μL to the reaction mixture containing the 5-iodotubercidin (Table 2: Sample 3) or the reaction mixture containing the peptide (Table 2: Sample 4). […]
# [2] = tested on: db/db mice; experiment: Efficacy test, 28-day daily intraperitoneal injection (blood glucose, insulin, HOMA-IR); format: in vivo, mouse
# Description: Fifty mice described in Test Example 2 were used as a test animal.
# Specifically, 3.8 mg of the above peptide was dissolved in 4.75 mL of physiological saline to prepare a 0.8 mg/mL peptide solution (hereinafter may be referred to as “peptide solution 2”). Then, 1.75 mL of the peptide solution 2 was dissolved in 3.5 mL of physiological saline to prepare a 0.27 mg/mL peptide solution (hereinafter may be referred to as “peptide solution 3”). Further, 1 mL of the peptide solution 3 was dissolved in 2 mL of physiological saline to prepare a 0.09 mg/mL peptide solution (hereinafter may be referred to as “peptide solution 4”).
# A metformin solution used for an activity control group was prepared as follows. Specifically, 120 mg of metformin (product of Sigma Co.) was dissolved in 4 mL of physiological saline to prepare a 30 mg/mL metformin solution.
# The efficacy test was conducted using the following five administration groups: a solvent (physiological saline) control administration group, a 150 mg/kg metformin administration group (serving as an activity control group), a 4.00 mg/kg peptide (expressed by SEQ ID No. 1) administration group, a 1.33 mg/kg peptide administration group and a 0.44 mg/kg peptide administration group. Each administration group had 10 mice.
# The above-prepared solutions were intraperitoneally injected every day to all of the mice of the test groups at the corresponding doses given in the following Table 4 for 28 days. The body weight, the fasting blood glucose level, the postprandial blood glucose level and the fasting blood insulin level were measured by the below-described measuring method according to the measurement schedule given in the following Table 5.
# The calculating method for the HOMA-IR value is described below.
# To measure the fasting blood glucose level and blood insulin level, 50 μL of blood was sampled from the postorbital region on Day 0, Day 14 and Day 28 after administration. The serum was obtained in the same manner as in Test Example 2.
# The postprandial blood glucose level was measured using blood sampled from the tail vein on Day 1, Day 13, and Day 27 after administration.
# The blood glucose level and blood insulin level were measured in the same manner as in Test Example 2.
# The insulin resistance was determined by the HOMA (homeostasis model assessment) method using the following calculation formula. HOMA-IR (index of insulin resistance)=fasting insulin level (μU/mL)×fasting blood glucose level (mmol/L)/22.5
# All of the values are indicated as “average value±average error.” The important differences between the groups and within each group were evaluated through one-way variance analysis and Dunnett's multiple comparison. The p-values equal to or lower than 0.05 were regarded as statistically significant.
# [3] = Metformin 150 mg/kg group, Day 0
# [4] = Metformin 150 mg/kg intraperitoneal every day, Day 28
# [5] = Metformin 150 mg/kg intraperitoneal every day, Day 28 minus Day 0
Compound,band of STAT3 whose Ser727 has been phosphorylated (western blotting) [1],"Fasting blood insulin level [2, 3]","HOMA-IR value [2, 3]","Fasting blood glucose level ([2]; Metformin 150 mg/kg group, Day 0, average ± average error, 10 mice)","Postprandial blood glucose level ([2]; Metformin 150 mg/kg group, Day 1, average ± average error, 10 mice)","Postprandial blood glucose level ([2]; Metformin 150 mg/kg intraperitoneal every day, Day 13)","Fasting blood glucose level ([2]; Metformin 150 mg/kg intraperitoneal every day, Day 14)","Postprandial blood glucose level ([2]; Metformin 150 mg/kg intraperitoneal every day, Day 27)","Fasting blood glucose level [2, 4]","Fasting blood insulin level [2, 4]","HOMA-IR value ([2]; Metformin 150 mg/kg intraperitoneal every day, Day 28, # p < 0.05 vs. solvent control group)","Increment in fasting blood glucose level [2, 5]","Increment in fasting blood insulin level [2, 5]","Increment in fasting blood glucose level ([2]; Metformin 150 mg/kg intraperitoneal every day, Day 28 minus Day 0, listed as metformin)","Increment in postprandial blood glucose level ([2]; Metformin 150 mg/kg intraperitoneal every day, Day 28 minus Day 0 as printed, # p < 0.05 vs. solvent control group)","suppression of increase in fasting blood glucose level (significance) ([2]; Metformin 150 mg/kg, Day 0 to Day 28, vs solvent control group)","HOMA-IR value (index of insulin resistance), change ([2]; Metformin 150 mg/kg, Day 28)"
5-iodotubercidin,lower in intensity than the band detected in the control,,,,,,,,,,,,,,,,
"CN(C)C(=N)N=C(N)N [Metformin, metformin]",,8.81 ± 1.33 ng/mL,139.4 ± 22.7,16.3 ± 1.3 mM,22.5 ± 2.0 mM,25.2 ± 2.0 mM,19.3 ± 1.5 mM,28.1 ± 1.6 mM,22.0 ± 3.1 mM,4.06 ± 0.84 ng/mL,79.6 ± 17.7^#,5.8 ± 2.4 mM,-4.94 ± 1.77 ng/mL,5.8 ± 2.4 mM,4.3 ± 2.2^# mM,not statistically significant,significantly decreased
